Test: In vitro half-life
Format: in vitro ADME
Description: The safety profile of TH9507 is generally good.

**Q.** For `CC[C@H](C)[C@H](NC(=O)[C@H](C)NC(=O)[C@H](CC(=O)O)NC(=O)[C@H](C)NC(=O)[C@@H](N)Cc1ccc(O)cc1)C(=O)N[C@@H](Cc1ccccc1)C(=O)N[C@H](C(=O)N[C@@H](CC(N)=O)C(=O)N[C@@H](CO)C(=O)N[C@@H](Cc1ccc(O)cc1)C(=O)N[C@@H](CCCNC(=N)N)C(=O)N[C@@H](CCCCN)C(=O)N[C@H](C(=O)N[C@@H](CC(C)C)C(=O)NCC(=O)N[C@@H](CCC(N)=O)C(=O)N[C@@H](CC(C)C)C(=O)N[C@@H](CO)C(=O)N[C@@H](C)C(=O)N[C@@H](CCCNC(=N)N)C(=O)N[C@@H](CCCCN)C(=O)N[C@@H](CC(C)C)C(=O)N[C@@H](CC(C)C)C(=O)N[C@@H](CCC(N)=O)C(=O)N[C@@H](CC(=O)O)C(=O)N[C@H](C(=O)N[C@@H](CCSC)C(=O)N[C@@H](CO)C(=O)N[C@@H](CCCNC(=N)N)C(=O)N[C@@H](CCC(N)=O)C(=O)N[C@@H](CCC(N)=O)C(=O)NCC(=O)N[C@@H](CCC(=O)O)C(=O)N[C@@H](CO)C(=O)N[C@@H](CC(N)=O)C(=O)N[C@@H](CCC(N)=O)C(=O)N[C@@H](CCC(=O)O)C(=O)N[C@@H](CCCNC(=N)N)C(=O)NCC(=O)N[C@@H](C)C(=O)N[C@@H](CCCNC(=N)N)C(=O)N[C@@H](C)C(=O)N[C@@H](CCCNC(=N)N)C(=O)N[C@@H](CC(C)C)C(N)=O)[C@@H](C)CC)C(C)C)[C@@H](C)O` [hGRF, hGRF(1-44)NH2, reference compound], which half-life is on record?
**A.** The half-life was 33.6 min.

— patent US8481489B2, “GH secretagogues and uses thereof” (Theratechnologies Inc., priority 2003, dated 2013)
